# Assay results as given in patent US20160355483A1, “COMPOUND BINDING TO PPARG BUT NOT ACTING AS PROMOTER AND PHARMACEUTICAL COMPOSITION FOR TREATING PPARG-RELATED DISEASES CONTAINING SAME AS ACTIVE INGREDIENT” (Hyundai Pharm Co., Ltd., priority 2014, published 2016).
# “Also recorded” adds a separate entry of the source.
# What was measured:
# CYP 2C9 = target: T1, CYP 2C9 (Homo sapiens, UniProt P11712); test: CYP (cytochrome P450)-suppressing effect, Invitrogen Vivid kit; format: in vitro ADME
# T1 construct: purchased Invitrogen P2861
# T1 sequence (P11712 whole entry): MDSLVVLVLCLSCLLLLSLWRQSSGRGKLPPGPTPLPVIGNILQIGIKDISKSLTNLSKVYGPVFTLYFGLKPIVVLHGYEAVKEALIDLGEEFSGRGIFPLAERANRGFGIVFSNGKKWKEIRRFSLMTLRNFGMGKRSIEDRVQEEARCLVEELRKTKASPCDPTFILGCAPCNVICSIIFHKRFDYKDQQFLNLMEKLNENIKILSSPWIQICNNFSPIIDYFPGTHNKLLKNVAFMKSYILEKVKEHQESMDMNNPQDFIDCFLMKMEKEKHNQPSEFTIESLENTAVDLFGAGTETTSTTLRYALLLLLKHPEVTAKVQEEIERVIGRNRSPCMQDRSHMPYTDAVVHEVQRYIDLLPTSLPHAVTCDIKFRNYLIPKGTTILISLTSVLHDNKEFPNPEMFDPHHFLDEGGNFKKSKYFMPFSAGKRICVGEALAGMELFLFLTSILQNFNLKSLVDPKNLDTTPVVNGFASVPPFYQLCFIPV
# Method: (§1) To evaluate the CYP (cytochrome P450)-suppressing activity of the compounds prepared in the examples of the invention, the following experiment was performed.
# (§2) The analysis of CYP1A2, 2C19, and 3A4 suppressing activity was performed by using a BD GENTEST (459100, 459400, and 459500) kit, and the analysis of CYP 2C9- and 2D6-suppressing activity was performed by using an Invitrogen (P2861 and P2862) kit.
# (§3) When the Invitrogen kit was used, the compounds of the present invention were diluted in Vivid CYP450 reaction buffer (1×) at the final concentration of 2.5×. The P450 BACULOSOMES sample and Regeneration system (100×) were diluted in Vivid CYP450 reaction buffer (1×) at different proper concentrations. 80 μL of the compound of the invention (2.5×) and […] of the diluted P450 BACULOSOMES sample mixture were mixed in a U-bottom 96-well plate, followed by pre-incubation for 10 minutes. Vivid CYP450 Substrate and NADP+ (100×) were diluted in Vivid CYP450 reaction buffer (1×) at a desired concentration, respectively, according to their corresponding types of CYP450 and substrates. 20 μL of Substrate-NADP+ mix was loaded in the plate when the pre-incubation had been completed, followed by reaction for 1 hour. Upon completion of the reaction, the reaction mixture was transferred in a white plate and fluorescent wavelength was measured with a microplate reader (2C9 excitation 415 nm, emission 460 nm, 2D6 excitation 400 nm, emission 502 nm).
# (§4) The test results were calculated by the following formula:
# (§5) (1−(fluorescence value of the test material/fluorescence value of the vehicle))×100%.
# CYP 2D6 = target: T2, CYP 2D6 (Homo sapiens, UniProt P10635); test: as above; format: in vitro ADME
# T2 construct: purchased Invitrogen P2862
# T2 sequence (P10635 whole entry): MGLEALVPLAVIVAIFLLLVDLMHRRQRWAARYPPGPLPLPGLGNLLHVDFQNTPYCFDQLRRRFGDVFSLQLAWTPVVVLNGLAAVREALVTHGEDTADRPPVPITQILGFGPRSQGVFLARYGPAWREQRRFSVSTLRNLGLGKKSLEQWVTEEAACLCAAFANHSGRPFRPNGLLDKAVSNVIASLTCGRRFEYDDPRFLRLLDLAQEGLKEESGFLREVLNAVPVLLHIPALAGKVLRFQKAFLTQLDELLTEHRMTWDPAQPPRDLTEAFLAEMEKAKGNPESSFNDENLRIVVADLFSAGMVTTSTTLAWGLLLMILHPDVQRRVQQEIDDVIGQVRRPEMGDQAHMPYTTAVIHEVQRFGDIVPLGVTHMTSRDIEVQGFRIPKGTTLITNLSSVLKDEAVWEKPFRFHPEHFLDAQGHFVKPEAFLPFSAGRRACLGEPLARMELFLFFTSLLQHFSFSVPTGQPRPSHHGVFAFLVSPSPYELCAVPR
# Method: as §1, §2, §3, §4, §5
# [1] = target: T3, PPARG (peroxisome proliferator activated receptor-gamma), GST-PPARG-LBD (Homo sapiens, UniProt P37231); test: LanthaScreen TR-FRET PPARG Competitive Binding Assay; design: key: “+” indicates the degree of the binding activity, and as the number of “+” increases, the binding activity is stronger; ++: “+” indicates the degree of the binding activity, and as the number of “+” increases, the binding activity is stronger; +++: “+” indicates the degree of the binding activity, and as the number of “+” increases, the binding activity is stronger; ++++: “+” indicates the degree of the binding activity, and as the number of “+” increases, the binding activity is stronger; details: degree of binding activity
# T3 construct: 15 μL of 5 nM GST-PPARG-LBD and 5 nM Tb-GST-antibody were added; purchased Invitrogen PV4894
# T3 sequence (P37231 238-503 limits assumed): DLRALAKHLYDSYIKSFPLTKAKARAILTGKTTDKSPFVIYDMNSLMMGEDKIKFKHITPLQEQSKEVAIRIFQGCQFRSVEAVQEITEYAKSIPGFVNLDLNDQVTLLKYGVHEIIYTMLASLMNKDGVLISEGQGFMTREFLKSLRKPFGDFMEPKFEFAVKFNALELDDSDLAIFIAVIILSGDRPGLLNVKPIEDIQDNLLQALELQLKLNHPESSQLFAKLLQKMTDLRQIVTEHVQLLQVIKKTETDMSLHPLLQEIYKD
# How it was run: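 GST-tagged human PPARG LBD in a TR-FRET competitive binding kit, 1 h at room temperature. Read-out is the 518/488 nm emission ratio (340 nm excitation); activity = 100% − compound ratio/vehicle ratio, compared with rosiglitazone.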
# [2] = tested on: CYP isozymes 1A2, 2C9, 2C19, and 2D6; test: CYP suppression compared with comparative examples (Table 3); format: in vitro ADME; details: result in words
# Method: as §1, §2, §3
# (§6) When the BD GENTEST kit was used, the compounds of the present invention were diluted in acetonitrile at the final concentration of 50×. The NADPH-Cofactor mix was prepared by diluting the Cofactor, G6PDH, and control protein provided by the kit in DW according to the instructed concentration. 4 μL of the compound of the example (50×) was mixed with 96 μL of NADPH-Cofactor mix in a 96-well plate, followed by pre-incubation in a 37° C. incubator for 10 minutes.
# (§7) The enzyme/substrate mixture was diluted in the buffer (0.5 M potassium phosphate, pH 7.4) provided by the kit according to the instructed concentration. Each CYP450 enzyme substrate was diluted in DW at a desired concentration respectively according to the corresponding types of CYP450. 100 μL of the enzyme/substrate mixture was loaded in the plate when the pre-incubation had been completed, followed by reaction in a 37° C. incubator for 15 minutes (1A2) and 30 minutes (3A4 and 2C19). Upon completion of the reaction, the mixture was transferred to a white plate, and the fluorescent wavelength was measured with a microplate reader (1A2, 2C19 excitation 410 nm, emission 460 nm; 3A4, excitation 409 nm, emission 530 nm).
# as §4, §5
# CYP 2C19 = target: T4, CYP 2C19 (Homo sapiens, UniProt P33261); test: CYP (cytochrome P450)-suppressing effect, BD GENTEST kit; format: in vitro ADME
# T4 construct: purchased BD GENTEST 459400
# T4 sequence (P33261 whole entry): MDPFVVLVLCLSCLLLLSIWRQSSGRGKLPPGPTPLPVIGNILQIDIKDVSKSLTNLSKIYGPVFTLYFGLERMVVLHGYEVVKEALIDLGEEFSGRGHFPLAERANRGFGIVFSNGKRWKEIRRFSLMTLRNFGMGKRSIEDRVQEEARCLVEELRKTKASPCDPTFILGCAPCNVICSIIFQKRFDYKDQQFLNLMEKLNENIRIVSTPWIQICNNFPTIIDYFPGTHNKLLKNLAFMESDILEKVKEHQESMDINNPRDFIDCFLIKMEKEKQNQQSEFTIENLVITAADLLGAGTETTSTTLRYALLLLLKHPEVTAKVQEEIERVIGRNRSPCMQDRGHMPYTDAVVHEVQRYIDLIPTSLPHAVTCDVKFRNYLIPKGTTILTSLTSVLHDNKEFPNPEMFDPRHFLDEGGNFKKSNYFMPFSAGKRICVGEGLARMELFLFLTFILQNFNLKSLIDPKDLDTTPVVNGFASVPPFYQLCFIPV
# Method: as §1, §2, §6, §7, §4, §5
# CYP1A2 = target: T5, CYP1A2 (Homo sapiens, UniProt P05177); test: as above; format: in vitro ADME
# T5 construct: purchased BD GENTEST 459100
# T5 sequence (P05177 1-516): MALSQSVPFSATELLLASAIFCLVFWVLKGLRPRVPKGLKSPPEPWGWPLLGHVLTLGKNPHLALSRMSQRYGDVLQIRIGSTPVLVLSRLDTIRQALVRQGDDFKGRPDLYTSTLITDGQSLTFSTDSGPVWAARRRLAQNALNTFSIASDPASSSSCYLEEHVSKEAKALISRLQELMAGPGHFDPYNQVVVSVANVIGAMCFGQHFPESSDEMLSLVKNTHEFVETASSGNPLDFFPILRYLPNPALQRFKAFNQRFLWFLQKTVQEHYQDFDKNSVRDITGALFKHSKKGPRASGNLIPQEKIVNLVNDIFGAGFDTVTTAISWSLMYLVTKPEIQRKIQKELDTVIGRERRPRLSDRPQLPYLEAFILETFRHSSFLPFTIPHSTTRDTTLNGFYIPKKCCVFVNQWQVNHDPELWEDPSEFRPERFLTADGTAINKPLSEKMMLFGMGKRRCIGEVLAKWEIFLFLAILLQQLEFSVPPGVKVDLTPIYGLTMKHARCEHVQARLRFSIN
# Method: as §1, §2, §6, §7, §4, §5
# CYP 3A4 = target: T6, CYP 3A4 (Homo sapiens, UniProt P08684); test: as above; format: in vitro ADME
# T6 construct: purchased BD GENTEST 459500
# T6 sequence (P08684 whole entry): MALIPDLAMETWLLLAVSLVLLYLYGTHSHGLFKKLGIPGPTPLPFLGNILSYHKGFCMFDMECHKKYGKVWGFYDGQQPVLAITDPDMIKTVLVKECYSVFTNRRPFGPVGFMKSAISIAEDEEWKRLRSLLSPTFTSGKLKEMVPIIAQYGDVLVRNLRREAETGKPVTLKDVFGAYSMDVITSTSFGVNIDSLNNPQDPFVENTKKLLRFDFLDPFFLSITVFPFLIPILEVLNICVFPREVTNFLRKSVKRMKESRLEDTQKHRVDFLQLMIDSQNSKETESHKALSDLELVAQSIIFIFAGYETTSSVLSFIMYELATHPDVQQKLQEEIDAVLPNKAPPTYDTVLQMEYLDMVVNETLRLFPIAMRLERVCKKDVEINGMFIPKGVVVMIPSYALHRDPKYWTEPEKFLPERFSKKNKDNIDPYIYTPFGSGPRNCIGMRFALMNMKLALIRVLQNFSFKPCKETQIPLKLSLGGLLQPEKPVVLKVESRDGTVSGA
# Method: as §1, §2, §6, §7, §4, §5
smiles,measurement,setting,value
"C[C@H](NC(=O)c1ccc2c(c1)CCCN2Cc1ccc(-c2ccccc2C(=O)[O-])cc1)c1ccc(C#N)cc1.[Na+] [Example 57, sodium (S)-4′-((6-((1-(4-cyanophenyl)ethyl)carbamoyl)-3,4-dihydroquinoline-1(2H)-yl)methyl)-[1,1′-biphenyl]-2-carboxylate]","CYP(10 μL, %) 2C9",CYP 2C9,58.87%
same,"CYP(10 μL, %) 2D6",CYP 2D6,82.59%
same,Binding assay (1 μLM),[1],+++
same,"suppression of CYP isozymes 1A2, 2C9, 2C19, and 2D6 compared with SR1664 and SR1824",[2],less than the compounds of the comparative examples; also recorded: less strongly than the compounds of the Comparative Examples
same,"CYP(10 μL, %) 2C19",CYP 2C19,75.69%
same,"CYP(10 μL, %) 1A2",CYP1A2,100.32%
same,"CYP(10 μL, %) 3A4",CYP 3A4,59.17%
"C[C@H](NC(=O)c1ccc2c(c1)OCCN2Cc1ccc(-c2ccccc2C(=O)O)cc1)c1ccccc1 [Example 58, (S)-4′-((7-((1-phenylethyl)carbamoyl)-2H-benzo[b][1,4]oxazine-4(3H)-yl)methyl)-[1,1′-biphenyl]-2-carboxylic acid]","CYP(10 μL, %) 2C9",CYP 2C9,57.47%
same,"CYP(10 μL, %) 2D6",CYP 2D6,55.23%
same,Binding assay (1 μLM),[1],+
same,"suppression of CYP isozymes 1A2, 2C9, 2C19, and 2D6 compared with SR1664 and SR1824",[2],less than the compounds of the comparative examples; also recorded: less strongly than the compounds of the Comparative Examples
same,"CYP(10 μL, %) 2C19",CYP 2C19,70.53%
same,"CYP(10 μL, %) 1A2",CYP1A2,100.93%
same,"CYP(10 μL, %) 3A4",CYP 3A4,56.92%
"C[C@H](NC(=O)c1ccc2c(c1)OCCN2Cc1ccc(-c2ccccc2C(=O)O)cc1)c1ccc([N+](=O)[O-])cc1 [Example 60, (S)-4′-((7-((1-(4-nitrophenyl)ethyl)carbamoyl)-2H-benzo[b][1,4]oxazine-4(3H)-yl)methyl)-[1,1′-biphenyl]-2-carboxylic acid]","CYP(10 μL, %) 2C9",CYP 2C9,80.25%
same,"CYP(10 μL, %) 2D6",CYP 2D6,62.27%
same,Binding assay (1 μLM),[1],++
same,"suppression of CYP isozymes 1A2, 2C9, 2C19, and 2D6 compared with SR1664 and SR1824",[2],less than the compounds of the comparative examples; also recorded: less strongly than the compounds of the Comparative Examples
same,"CYP(10 μL, %) 2C19",CYP 2C19,69.60%
same,"CYP(10 μL, %) 1A2",CYP1A2,100.63%
same,"CYP(10 μL, %) 3A4",CYP 3A4,70.64%
"C[C@H](NC(=O)c1ccc2c(c1)OCCN2Cc1ccc(-c2ccccc2C(=O)O)cc1)c1ccc(C#N)cc1 [Example 74, (S)-4′-((7-((1-(4-cyanophenyl)ethyl)carbamoyl)-2H-benzo[b][1,4]oxazine-4(3H)-yl)methyl)-[1,1′-biphenyl]-2-carboxylic acid]","CYP(10 μL, %) 2C9",CYP 2C9,80.68%
same,"CYP(10 μL, %) 2D6",CYP 2D6,83.97%
same,Binding assay (1 μLM),[1],+
same,"suppression of CYP isozymes 1A2, 2C9, 2C19, and 2D6 compared with SR1664 and SR1824",[2],less than the compounds of the comparative examples; also recorded: less strongly than the compounds of the Comparative Examples
same,"CYP(10 μL, %) 2C19",CYP 2C19,91.36%
same,"CYP(10 μL, %) 1A2",CYP1A2,102.89%
same,"CYP(10 μL, %) 3A4",CYP 3A4,81.98%
"C[C@H](NC(=O)c1ccc2c(c1)OCCN2Cc1ccc(-c2ccccc2C(N)=O)cc1)c1ccc2ccccc2c1 [Example 96, (S)-4-((2′-carbamoyl-[1,1′-biphenyl]-4-yl)methyl)-N-(1-(naphthalene-2-yl)ethyl)-3,4-dihydro-2H-benzo[b][1,4]oxazine-7-carboxamide]","CYP(10 μL, %) 2C9",CYP 2C9,57.63%
same,"CYP(10 μL, %) 2D6",CYP 2D6,98.66%
same,Binding assay (1 μLM),[1],+++
same,"suppression of CYP isozymes 1A2, 2C9, 2C19, and 2D6 compared with SR1664 and SR1824",[2],less than the compounds of the comparative examples; also recorded: less strongly than the compounds of the Comparative Examples
same,"CYP(10 μL, %) 2C19",CYP 2C19,52.35%
same,"CYP(10 μL, %) 1A2",CYP1A2,92.41%
same,"CYP(10 μL, %) 3A4",CYP 3A4,98.04%
"C[C@H](NC(=O)c1ccc2c(c1)CCCN2Cc1ccc(-c2ccccc2C(=O)O)cc1F)c1ccc(C#N)cc1 [Example 110, (S)-4′-((6-((1-(4-cyanophenyl)ethyl)carbamoyl)-3,4-dihydroquinoline-1(2H)-yl)methyl)-3′-fluoro-[1,1′-biphenyl]-2-carboxylic acid]","CYP(10 μL, %) 2C9",CYP 2C9,55.18%
same,"CYP(10 μL, %) 2D6",CYP 2D6,88.44%
same,Binding assay (1 μLM),[1],+++
same,"suppression of CYP isozymes 1A2, 2C9, 2C19, and 2D6 compared with SR1664 and SR1824",[2],less than the compounds of the comparative examples; also recorded: less strongly than the compounds of the Comparative Examples
same,"CYP(10 μL, %) 2C19",CYP 2C19,69.53%
same,"CYP(10 μL, %) 1A2",CYP1A2,97.28%
same,"CYP(10 μL, %) 3A4",CYP 3A4,53.03%
"C[C@H](NC(=O)c1ccc2c(c1)CCCN2Cc1ccc(-c2ccccc2C(N)=O)cc1F)c1ccc([N+](=O)[O-])cc1 [Example 113, (S)-1-((2′-carbamoyl-3-fluoro-[1,1′-biphenyl]-4-yl)methyl)-N-(1-(4-nitrophenyl)ethyl)-1,2,3,4-tetrahydroquinoline-6-carboxamide]","CYP(10 μL, %) 2C9",CYP 2C9,67.73%
same,"CYP(10 μL, %) 2D6",CYP 2D6,78.65%
same,Binding assay (1 μLM),[1],++
same,"suppression of CYP isozymes 1A2, 2C9, 2C19, and 2D6 compared with SR1664 and SR1824",[2],less than the compounds of the comparative examples; also recorded: less strongly than the compounds of the Comparative Examples
same,"CYP(10 μL, %) 2C19",CYP 2C19,54.70%
same,"CYP(10 μL, %) 1A2",CYP1A2,97.27%
same,"CYP(10 μL, %) 3A4",CYP 3A4,85.01%
